Values after ≈ are worked out from the molar mass of the structure shown.
Key:
Type in all cases: cell-based
[1] = tested on: Legionella pneumophila gr. 5; assay: microbe, parasite or virus in culture; conditions: GR.5, 96 h, pH 6
[2] = tested on: Legionella pneumophila gr. 1; assay: microbe, parasite or virus in culture; conditions: GR.1, 96 h, pH 6
[3] = tested on: L.longbeachae gr. 2; assay: microbe, parasite or virus in culture; conditions: pH 6; 48 hours; 37°C
[4] = tested on: L.pneumophila gr. 4; assay: microbe, parasite or virus in culture; conditions: Legionella pneumophila, GR.4, 48 h, pH 6
[5] = tested on: L.pneumophila gr. 3; assay: microbe, parasite or virus in culture; conditions: Legionella pneumophila, GR.3, 48 h, pH 6
[6] = tested on: L.jordanis; assay: microbe, parasite or virus in culture; conditions: pH 6; 48 hours; 37°C
[7] = tested on: L.longbeachae gr. 1; assay: microbe, parasite or virus in culture; conditions: pH 6; 48 hours; 37°C
[8] = tested on: L.pneumophila gr. 9; assay: microbe, parasite or virus in culture; conditions: Legionella pneumophila, GR.9, 48 h, pH 6
[9] = tested on: L.gormanii; assay: MIC determination on buffered charcoal yeast-extract agar (Example I); conditions: Fluoribacter gormanii, pH 6,9, 48 hours, 37°C
[10] = tested on: L.pneumophila gr. 2; assay: microbe, parasite or virus in culture; conditions: Legionella pneumophila, GR.2, 48 h, pH 6
[11] = tested on: L.pneumophila gr. 8; assay: microbe, parasite or virus in culture; conditions: Legionella pneumophila, GR.8, 48 h, pH 6
[12] = tested on: L.pneumophila gr. 5; assay: microbe, parasite or virus in culture; conditions: Legionella pneumophila, GR.5, 48 h, pH 6
[13] = tested on: L.wadsworthii; assay: microbe, parasite or virus in culture; conditions: pH 6; 48 hours; 37°C
[14] = tested on: L.pneumophila gr.10; assay: microbe, parasite or virus in culture; conditions: Legionella pneumophila, GR.10, 48 h, pH 6
[15] = tested on: L.pneumophila gr. 6; assay: microbe, parasite or virus in culture; conditions: Legionella pneumophila, GR.6, 48 h, pH 6
[16] = tested on: L.oakridgensis; assay: microbe, parasite or virus in culture; conditions: pH 6; 48 hours; 37°C
[17] = tested on: L.bozemanii gr. 1; assay: microbe, parasite or virus in culture; conditions: pH 6; 48 hours; 37°C
[18] = tested on: L.dumoffii; assay: microbe, parasite or virus in culture; conditions: pH 6; 48 hours; 37°C
[19] = tested on: L.micdadei; assay: microbe, parasite or virus in culture; conditions: pH 6; 48 hours; 37°C
[20] = tested on: Myxococcus xanthus; assay: MIC determination on casitone agar (Example III); conditions: 96 h, pH 7.6, casitone agar pH 7,6, four days, 30°C
[21] = tested on: L.pneumophila gr. 7; assay: microbe, parasite or virus in culture; conditions: Legionella pneumophila, GR.7, 48 h, pH 6

SMILES	MIC [1]	MIC [2]	MIC [3]	MIC [4]	MIC [5]	MIC [6]	MIC [7]	MIC [8]	MIC [9]	MIC [10]	MIC [11]	MIC [12]	MIC [13]	MIC [14]	MIC [15]	MIC [16]	MIC [17]	MIC [18]	MIC [19]	MIC [21]	other results
CCC1COC(Cn2cncn2)(c2ccc(Cl)cc2Cl)O1 (stereo not drawn) [etaconazole]	> 100 µg/mL	> 100 µg/mL	–	–	–	–	–	–	–	–	–	–	–	–	–	–	–	–	–	–	–
OC(c1ccc(Cl)cc1)(c1cncnc1)c1ccccc1Cl (stereo not drawn) [fenarimol]	100 µg/mL (≈ 302 µM)	100 µg/mL (≈ 302 µM)	–	–	–	–	–	–	–	–	–	–	–	–	–	–	–	–	–	–	–
Clc1ccccc1C(c1ccccc1)(c1ccccc1)n1ccnc1 [clotrimazole]	–	–	16 µg/mL (≈ 46.4 µM)	16 µg/mL (≈ 46.4 µM)	8 µg/mL (≈ 23.2 µM)	16 µg/mL (≈ 46.4 µM)	16 µg/mL (≈ 46.4 µM)	16 µg/mL (≈ 46.4 µM)	8 µg/mL (≈ 23.2 µM)	16 µg/mL (≈ 46.4 µM)	16 µg/mL (≈ 46.4 µM)	16 µg/mL (≈ 46.4 µM)	8 µg/mL (≈ 23.2 µM)	16 µg/mL (≈ 46.4 µM)	16 µg/mL (≈ 46.4 µM)	8 µg/mL (≈ 23.2 µM)	8 µg/mL (≈ 23.2 µM)	16 µg/mL (≈ 46.4 µM)	16 µg/mL (≈ 46.4 µM)	16 µg/mL (≈ 46.4 µM)	MIC [20]: 2 µg/mL (≈ 5.8 µM)
c1ccc(-c2ccc(C(c3ccccc3)n3ccnc3)cc2)cc1 (stereo not drawn) [bifonazole]	–	–	64 µg/mL (≈ 206 µM)	128 µg/mL (≈ 412 µM)	128 µg/mL (≈ 412 µM)	64 µg/mL (≈ 206 µM)	64 µg/mL (≈ 206 µM)	128 µg/mL (≈ 412 µM)	128 µg/mL (≈ 412 µM)	128 µg/mL (≈ 412 µM)	128 µg/mL (≈ 412 µM)	64 µg/mL (≈ 206 µM)	32 µg/mL (≈ 103 µM)	128 µg/mL (≈ 412 µM)	64 µg/mL (≈ 206 µM)	64 µg/mL (≈ 206 µM)	128 µg/mL (≈ 412 µM)	64 µg/mL (≈ 206 µM)	64 µg/mL (≈ 206 µM)	128 µg/mL (≈ 412 µM)	–
Clc1ccc(COC(Cn2ccnc2)c2ccc(Cl)cc2Cl)c(Cl)c1 (stereo not drawn) [miconazole]	–	–	128 µg/mL (≈ 308 µM)	128 µg/mL (≈ 308 µM)	128 µg/mL (≈ 308 µM)	128 µg/mL (≈ 308 µM)	128 µg/mL (≈ 308 µM)	128 µg/mL (≈ 308 µM)	128 µg/mL (≈ 308 µM)	128 µg/mL (≈ 308 µM)	128 µg/mL (≈ 308 µM)	128 µg/mL (≈ 308 µM)	128 µg/mL (≈ 308 µM)	128 µg/mL (≈ 308 µM)	128 µg/mL (≈ 308 µM)	64 µg/mL (≈ 154 µM)	128 µg/mL (≈ 308 µM)	128 µg/mL (≈ 308 µM)	128 µg/mL (≈ 308 µM)	128 µg/mL (≈ 308 µM)	MIC [20]: 2 µg/mL (≈ 4.81 µM)
CCCCCCCCCCCCCN1CC(C)OC(C)C1 (stereo not drawn) [tridemorph]	50 µg/mL (≈ 168 µM)	100 µg/mL (≈ 336 µM)	–	–	–	–	–	–	–	–	–	–	–	–	–	–	–	–	–	–	–
Clc1ccccc1C(c1ccc(-c2ccccc2)cc1)n1ccnc1 (stereo not drawn) [lombazole]	–	–	64 µg/mL (≈ 186 µM)	128 µg/mL (≈ 371 µM)	128 µg/mL (≈ 371 µM)	64 µg/mL (≈ 186 µM)	64 µg/mL (≈ 186 µM)	128 µg/mL (≈ 371 µM)	64 µg/mL (≈ 186 µM)	128 µg/mL (≈ 371 µM)	128 µg/mL (≈ 371 µM)	64 µg/mL (≈ 186 µM)	32 µg/mL (≈ 92.8 µM)	64 µg/mL (≈ 186 µM)	64 µg/mL (≈ 186 µM)	64 µg/mL (≈ 186 µM)	128 µg/mL (≈ 371 µM)	64 µg/mL (≈ 186 µM)	64 µg/mL (≈ 186 µM)	128 µg/mL (≈ 371 µM)	MIC [20]: 2 µg/mL (≈ 5.8 µM)
